Literature values in patent US20100272800A1 (SANOVEL ILAC SANAYI VE TICARET ANONIM SIRKETI, priority 2009, published 2010).

In the case of Cc1cc2c(s1)Nc1ccccc1N=C2N1CCN(C)CC1 [Olanzapine, 2-methyl-4-(4-methyl-1-piperazinyl)-10H-thieno[2,3-b][1,5] benzodiazepine], the solubility in water is given as “practically insoluble in water”.
